Experimental data reported in patent publication US8686044B2, “Amide derivative, pest control agent containing the amide derivative, and use of the amide derivative” (Mitsui Chemicals Agro, Inc., priority 2008, dated 2014).

What was measured:
Format in all cases: in vivo
Musca domestica = test: Pesticidal test against Musca domestica (petri dish dry film); settings: 24 h, concentration 100 ppm, female adults, examined after 1 day, 25° C., read-out: pesticidal rate
How it was run: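 Dry film from 1 ml acetone solution of compound at a predetermined concentration, air-dried in a 9 cm petri dish; female adult flies released and dish capped. Held at 25° C; living and dead counted after 1 day. Five insects per group, two replicates.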

Spodoptera litura = test: Pesticidal test against Spodoptera litura (cabbage leaf dip); settings: foliar, 144 h, concentration 1 ppm, 2-stage larvae, examined after 6 days, 25° C., read-out: pesticidal rate
How it was run: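 Cabbage leaf pieces dipped 30 seconds in compound solution at a predetermined concentration and air-dried, then offered to second-stage larvae, five per group in two replicates. Held at 25° C. Living and dead larvae counted after 6 days.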

Blattella germanica = test: Pesticidal test against Blattella germanica (petri dish dry film); settings: 24 h, concentration 100 ppm, female adults, examined after 1 day, 25° C., read-out: pesticidal rate
Experimental: Pesticidal Test against Blattella germanica
1 ml of an acetone solution in which a test compound had been prepared at a predetermined concentration was added dropwise to a petri dish having a diameter of 9 cm, and air-dried, and then the female adults of Blattella germanica were released and the petri dish was capped. They were left to stand in a thermostatic chamber at 25° C., and the numbers of the living pests and the dead pests were examined after 1 day. The test was carried out with five larvae per group in two replicates.

Plutella xylostella = test: Pesticidal test against Plutella xylostella (cabbage leaf dip); settings: foliar, 144 h, concentration 1 ppm, 2-stage larvae, examined after 6 days, 25° C., read-out: pesticidal rate
How it was run: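 Cabbage leaf pieces dipped 30 s in test solution at a predetermined concentration, air-dried, then offered to 2nd-instar larvae, five per group in duplicate. Held at 25° C; living and dead larvae counted after 6 days.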

Laodelphax striatellus = test: Pesticidal test against Laodelphax striatellus (rice seedling spray); settings: 144 h, concentration 100 ppm, 3-stage larvae, examined after 6 days, 25° C., read-out: pesticidal rate
How it was run: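 Rice seedlings sprayed with 2.5 ml acetone solution of compound at a predetermined concentration, air-dried, then infested with third-stage Laodelphax striatellus larvae in capped water-containing tubes at 25 °C. Living and dead insects counted after 6 days; ten larvae per group, two replicates.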

Choristoneura magnanima = test: Pesticidal test against Choristoneura magnanima (artificial feed dip); settings: 144 h, concentration 1 ppm, 2-stage larvae, examined after 6 days, 25° C., read-out: pesticidal rate
How it was run: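 Thin artificial feed slices dipped 30 s in compound solution at a set concentration, air-dried, then offered to 2nd-stage larvae held at 25° C. Living and dead larvae counted after 6 days; five larvae per group, two replicates.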

Adoxophyes honmai = test: Pesticidal test against Adoxophyes honmai (artificial feed dip); settings: 144 h, 2-stage larvae, examined after 6 days, 25° C., read-out: pesticidal rate; for pest or weed control at 1 ppm: concentration 1 ppm
How it was run: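 Thin artificial feed slices dipped 30 s in test solution at a predetermined concentration, air-dried, then offered to 2nd-stage larvae. Kept at 25° C; live and dead larvae counted after 6 days. Five larvae per group, two replicates.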

Helicoverpa armigera = test: Pesticidal test against Helicoverpa armigera (cabbage leaf disk dip); settings: foliar, 72 h, concentration 1 ppm, 2-stage larvae, examined after 3 days, 25° C., read-out: pesticidal rate
How it was run: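 Cabbage leaf disks were dipped for 30 s in test solution at a set concentration and air-dried. Second-instar larvae were placed one per hole and held at 25 °C, with live and dead counts taken after 3 days. Five larvae per group were tested in two replicates.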

N#Cc1ccc(C(=O)Nc2c(Br)cc(C(F)(C(F)(F)F)C(F)(F)F)cc2C(F)(F)F)c(F)c1NC(=O)c1ccccc1 [1-1925]
≥ 70%: pest or weed control at 100 ppm (Musca domestica) | pest or weed control at 1 ppm (Spodoptera litura) | pest or weed control at 100 ppm (Blattella germanica) | pest or weed control at 1 ppm (Plutella xylostella)

CN(C(=O)c1ccc(F)cc1)c1cccc(C(=O)Nc2c(Br)cc(C(F)(C(F)(F)F)C(F)(F)C(F)(F)F)cc2C(F)(F)F)c1 (stereo not shown) [7-349]
≥ 70%: pest or weed control at 100 ppm (Musca domestica) | pest or weed control at 1 ppm (Spodoptera litura) | pest or weed control at 100 ppm (Blattella germanica) | pest or weed control at 1 ppm (Plutella xylostella)

CN(C(=O)c1ccc(Cl)nc1)c1cccc(C(=O)Nc2c(I)cc(C(F)(C(F)(F)F)C(F)(F)C(F)(F)F)cc2I)c1F (stereo not shown) [7-1381]
≥ 70%: pest or weed control at 100 ppm (Musca domestica) | pest or weed control at 1 ppm (Spodoptera litura) | pest or weed control at 100 ppm (Laodelphax striatellus) | pest or weed control at 100 ppm (Blattella germanica) | pest or weed control at 1 ppm (Plutella xylostella)

O=C(Nc1cccc(C(=O)Nc2c(Br)cc(C(F)(C(F)(F)F)C(F)(F)C(F)(F)F)cc2C(F)(F)F)c1)c1ccccc1 (stereo not shown) [6-346]
≥ 70%: pest or weed control at 100 ppm (Musca domestica) | pest or weed control at 1 ppm (Spodoptera litura) | pest or weed control at 100 ppm (Laodelphax striatellus) | pest or weed control at 100 ppm (Blattella germanica) | pest or weed control at 1 ppm (Plutella xylostella)

N#Cc1ccc(C(=O)Nc2cccc(C(=O)Nc3c(Br)cc(C(F)(C(F)(F)F)C(F)(F)F)cc3Br)c2F)cc1 [6-1125]
≥ 70%: pest or weed control at 100 ppm (Musca domestica) | pest or weed control at 1 ppm (Spodoptera litura) | pest or weed control at 100 ppm (Blattella germanica) | pest or weed control at 1 ppm (Plutella xylostella)

CN(C(=O)c1ccccc1F)c1cccc(C(=O)Nc2c(Br)cc(C(F)(C(F)(F)F)C(F)(F)F)cc2C(F)(F)F)c1F [7-1575]
≥ 70%: pest or weed control at 100 ppm (Musca domestica) | pest or weed control at 1 ppm (Spodoptera litura) | pest or weed control at 100 ppm (Laodelphax striatellus) | pest or weed control at 100 ppm (Blattella germanica) | pest or weed control at 1 ppm (Plutella xylostella)

CN(C(=O)c1c(F)cccc1F)c1cccc(C(=O)Nc2c(I)cc(C(F)(C(F)(F)F)C(F)(F)F)cc2C(F)(F)F)c1 [7-446]
≥ 70%: pest or weed control at 100 ppm (Musca domestica) | pest or weed control at 1 ppm (Spodoptera litura) | pest or weed control at 100 ppm (Laodelphax striatellus) | pest or weed control at 100 ppm (Blattella germanica) | pest or weed control at 1 ppm (Plutella xylostella)

O=C(Nc1cccc(C(=O)Nc2c(Br)cc(C(F)(C(F)(F)F)C(F)(F)F)cc2C(F)(F)F)c1F)c1ccccc1F [6-1575]
≥ 70%: pest or weed control at 100 ppm (Musca domestica) | pest or weed control at 1 ppm (Spodoptera litura) | pest or weed control at 100 ppm (Laodelphax striatellus) | pest or weed control at 100 ppm (Blattella germanica) | pest or weed control at 1 ppm (Plutella xylostella)

O=C(Nc1cccc(C(=O)Nc2c(Br)cc(C(F)(C(F)(F)F)C(F)(F)C(F)(F)F)cc2Br)c1)c1cccc(F)c1 (stereo not shown) [6-5905]
≥ 70%: pest or weed control at 100 ppm (Musca domestica) | pest or weed control at 1 ppm (Spodoptera litura) | pest or weed control at 100 ppm (Laodelphax striatellus) | pest or weed control at 100 ppm (Blattella germanica) | pest or weed control at 1 ppm (Plutella xylostella)

CN(C(=O)c1c(F)cccc1F)c1cccc(C(=O)Nc2c(I)cc(C(F)(C(F)(F)F)C(F)(F)F)cc2I)c1F [7-1282]
≥ 70%: pest or weed control at 100 ppm (Musca domestica) | pest or weed control at 1 ppm (Spodoptera litura) | pest or weed control at 100 ppm (Laodelphax striatellus) | pest or weed control at 100 ppm (Blattella germanica) | pest or weed control at 1 ppm (Plutella xylostella)

CN(C(=O)c1c(F)cccc1F)c1cccc(C(=O)Nc2c(Br)cc(C(F)(C(F)(F)F)C(F)(F)F)cc2Br)c1F [7-1126]
≥ 70%: pest or weed control at 100 ppm (Musca domestica) | pest or weed control at 1 ppm (Spodoptera litura) | pest or weed control at 100 ppm (Laodelphax striatellus) | pest or weed control at 100 ppm (Blattella germanica) | pest or weed control at 1 ppm (Plutella xylostella)

O=C(Nc1cccc(C(=O)Nc2c(Br)cc(C(F)(C(F)(F)F)C(F)(F)F)cc2C(F)(F)F)c1F)c1cccnc1Cl [6-1610]
≥ 70%: pest or weed control at 1 ppm (Spodoptera litura) | pest or weed control at 100 ppm (Laodelphax striatellus) | pest or weed control at 100 ppm (Blattella germanica) | pest or weed control at 1 ppm (Plutella xylostella)

O=C(Nc1cccc(C(=O)Nc2c(Br)cc(C(F)(C(F)(F)F)C(F)(F)F)cc2Br)c1F)c1ccccc1F [6-1105]
≥ 70%: pest or weed control at 100 ppm (Musca domestica) | pest or weed control at 1 ppm (Spodoptera litura) | pest or weed control at 100 ppm (Blattella germanica) | pest or weed control at 1 ppm (Plutella xylostella)

CN(C(=O)c1ccccc1F)c1cccc(C(=O)Nc2c(Br)cc(C(F)(C(F)(F)F)C(F)(F)F)cc2Br)c1F [7-1105]
≥ 70%: pest or weed control at 100 ppm (Musca domestica) | pest or weed control at 1 ppm (Spodoptera litura) | pest or weed control at 100 ppm (Laodelphax striatellus) | pest or weed control at 100 ppm (Blattella germanica) | pest or weed control at 1 ppm (Plutella xylostella)

CN(C(=O)c1cccc(C#N)c1)c1cccc(C(=O)Nc2c(I)cc(C(F)(C(F)(F)F)C(F)(F)C(F)(F)F)cc2I)c1F (stereo not shown) [7-1358]
≥ 70%: pest or weed control at 1 ppm (Choristoneura magnanima) | pest or weed control at 100 ppm (Musca domestica) | pest or weed control at 1 ppm (Spodoptera litura) | pest or weed control at 100 ppm (Laodelphax striatellus) | pest or weed control at 1 ppm (Adoxophyes honmai) | pest or weed control at 1 ppm (Helicoverpa armigera) | pest or weed control at 1 ppm (Plutella xylostella)

CN(C(=O)c1ccc(F)cc1)c1cccc(C(=O)Nc2c(I)cc(C(F)(C(F)(F)F)C(F)(F)C(F)(F)F)cc2C(F)(F)F)c1F (stereo not shown) [7-1811]
≥ 70%: pest or weed control at 1 ppm (Choristoneura magnanima) | pest or weed control at 100 ppm (Musca domestica) | pest or weed control at 1 ppm (Spodoptera litura) | pest or weed control at 100 ppm (Laodelphax striatellus) | pest or weed control at 1 ppm (Adoxophyes honmai) | pest or weed control at 1 ppm (Helicoverpa armigera) | pest or weed control at 1 ppm (Plutella xylostella)

N#Cc1cccc(C(=O)Nc2cccc(C(=O)Nc3c(Br)cc(C(F)(C(F)(F)F)C(F)(F)C(F)(F)F)cc3C(F)(F)F)c2F)c1 (stereo not shown) [6-1672]
≥ 70%: pest or weed control at 1 ppm (Choristoneura magnanima) | pest or weed control at 100 ppm (Musca domestica) | pest or weed control at 1 ppm (Spodoptera litura) | pest or weed control at 100 ppm (Laodelphax striatellus) | pest or weed control at 1 ppm (Adoxophyes honmai) | pest or weed control at 1 ppm (Helicoverpa armigera) | pest or weed control at 1 ppm (Plutella xylostella)

CN(C(=O)c1ccc(C#N)cc1)c1cccc(C(=O)Nc2c(Br)cc(C(F)(C(F)(F)F)C(F)(F)C(F)(F)F)cc2C(F)(F)F)c1 (stereo not shown) [7-367]
≥ 70%: pest or weed control at 100 ppm (Musca domestica) | pest or weed control at 1 ppm (Spodoptera litura) | pest or weed control at 100 ppm (Blattella germanica) | pest or weed control at 1 ppm (Plutella xylostella)

O=C(Nc1cccc(C(=O)Nc2c(I)cc(C(F)(C(F)(F)F)C(F)(F)F)cc2I)c1F)c1cccnc1Cl [6-1296]
≥ 70%: pest or weed control at 1 ppm (Spodoptera litura) | pest or weed control at 100 ppm (Laodelphax striatellus) | pest or weed control at 100 ppm (Blattella germanica) | pest or weed control at 1 ppm (Plutella xylostella)

CN(C(=O)c1ccccc1F)c1cccc(C(=O)Nc2c(I)cc(C(F)(C(F)(F)F)C(F)(F)F)cc2I)c1F [7-1261]
≥ 70%: pest or weed control at 1 ppm (Spodoptera litura) | pest or weed control at 100 ppm (Laodelphax striatellus) | pest or weed control at 100 ppm (Blattella germanica) | pest or weed control at 1 ppm (Plutella xylostella)

O=C(Nc1c(I)cc(C(F)(C(F)(F)F)C(F)(F)C(F)(F)F)cc1C(F)(F)F)c1cccc(NC(=O)c2c(F)cccc2F)c1F (stereo not shown) [6-1830]
≥ 70%: pest or weed control at 1 ppm (Choristoneura magnanima) | pest or weed control at 100 ppm (Musca domestica) | pest or weed control at 1 ppm (Spodoptera litura) | pest or weed control at 100 ppm (Laodelphax striatellus) | pest or weed control at 1 ppm (Adoxophyes honmai) | pest or weed control at 1 ppm (Helicoverpa armigera) | pest or weed control at 1 ppm (Plutella xylostella)

CN(C(=O)c1cccnc1Br)c1cccc(C(=O)Nc2c(Br)cc(C(F)(C(F)(F)F)C(F)(F)F)cc2C(F)(F)F)c1 [7-305]
≥ 70%: pest or weed control at 1 ppm (Spodoptera litura) | pest or weed control at 100 ppm (Laodelphax striatellus) | pest or weed control at 100 ppm (Blattella germanica) | pest or weed control at 1 ppm (Plutella xylostella)

N#Cc1cccc(C(=O)Nc2cccc(C(=O)Nc3c(I)cc(C(F)(C(F)(F)F)C(F)(F)F)cc3I)c2F)c1 [6-1280]
≥ 70%: pest or weed control at 1 ppm (Spodoptera litura) | pest or weed control at 100 ppm (Laodelphax striatellus) | pest or weed control at 100 ppm (Blattella germanica) | pest or weed control at 1 ppm (Plutella xylostella)

CN(C(=O)c1ccccc1F)c1cccc(C(=O)Nc2c(Br)cc(C(F)(C(F)(F)F)C(F)(F)C(F)(F)F)cc2C(F)(F)F)c1 (stereo not shown) [7-347]
≥ 70%: pest or weed control at 1 ppm (Spodoptera litura) | pest or weed control at 100 ppm (Blattella germanica) | pest or weed control at 1 ppm (Plutella xylostella)

O=C(Nc1cccc(C(=O)Nc2c(I)cc(C(F)(C(F)(F)F)C(F)(F)C(F)(F)F)cc2C(F)(F)F)c1F)c1ccc(Cl)nc1 (stereo not shown) [6-1851]
≥ 70%: pest or weed control at 1 ppm (Choristoneura magnanima) | pest or weed control at 100 ppm (Musca domestica) | pest or weed control at 1 ppm (Spodoptera litura) | pest or weed control at 100 ppm (Laodelphax striatellus) | pest or weed control at 10 ppm (Adoxophyes honmai; concentration 10 ppm) | pest or weed control at 1 ppm (Helicoverpa armigera) | pest or weed control at 1 ppm (Plutella xylostella)

CN(C(=O)c1ccccc1)c1cccc(C(=O)Nc2c(Br)cc(C(F)(C(F)(F)F)C(F)(F)C(F)(F)F)cc2C(F)(F)F)c1F (stereo not shown) [7-1652]
≥ 70%: pest or weed control at 1 ppm (Choristoneura magnanima) | pest or weed control at 100 ppm (Musca domestica) | pest or weed control at 1 ppm (Spodoptera litura) | pest or weed control at 100 ppm (Laodelphax striatellus) | pest or weed control at 1 ppm (Adoxophyes honmai) | pest or weed control at 1 ppm (Helicoverpa armigera) | pest or weed control at 1 ppm (Plutella xylostella)
